These are literature values, as cited in patent US20090069233A1, “Agonist Peptides of Basic Fibroblast Growth Factor (bFGF) and the Method of Reduction of Wrinkles on Skin, Darkening of Hair and Acceleration of Wound Healing” (priority 2005, published 2009).

In data set [1] the test system is melanocytes obtained from the uninvolved areas of untreated vitiligo subjects. The note with it: in vitro cell cultures.
The subject of data set [2] is depigmented ear lobes of Guinea pigs. The note with it: bFGF by interdermal injection.
Data set [3] relates to depigmented skin patches of Yucatan swine. The note with it: bFGF by interdermal injection.
The test system of another data set is artificial wound space. The note with it: poly-vinyl alcohol sponge implant, histological and biochemical analysis.
Another data set relates to wounds of diabetic mice. The note with it: wound healing experiments.

Consider “bFGF: Basic fibroblast growth factor, a potent mitogen for melanocytes, keratinocytes and fibroblasts”, for which the “correction of abnormalities of melanocytes” value in data set [1] was “corrects all the abnormalities of melanocytes”. Further, the “repigmentation of depigmented ear lobes” value in data set [2] is “found effect”. The “repigmentation of depigmented skin patches” value in data set [3] is on record as “found effect”. In addition, in the data set on artificial wound space, the “neo vascularisation, number of fibroblasts and deposition of collagen in the wound space” value is “increase neo vasculatisation the number of fibroblasts and the deposition of collagen in the wound space”. Also, in the data set with wounds of diabetic mice, the side effects result is “no side effects”.
Take “epidermal growth factor: other growth factor used as specificity control in repigmentation animal models (NSDSECPLSHDGYCLHDGVCMYIEALDKYACNCVVGYIGERCQYRDLKWWELR; UniProt P01133 971-1023, looked up) [reference compound]”: the “repigmentation of depigmented ear lobes” value in data set [2] is on record as “did not have any effect”. In addition, the “repigmentation of depigmented skin patches” value in data set [3] is “did not have any effect”.
